In ChEMBL document CHEMBL5584361, “Re-Evaluating PIN1 as a Therapeutic Target in Oncology Using Neutral Inhibitors and PROTACs” (J Med Chem, 2024):

How the values were obtained:
[1] = target: T1, Peptidyl-prolyl cis-trans isomerase NIMA-interacting 1 (Homo sapiens, UniProt Q13526); assay: Inhibition of recombinant human PIN1 prolyl isomerase activity measured after 180 mins
[2] = target: T1, Peptidyl-prolyl cis-trans isomerase NIMA-interacting 1
[3] = target: T1, Peptidyl-prolyl cis-trans isomerase NIMA-interacting 1; assay: Inhibition of His-tagged PIN1 (unknown origin) TAMRA labelled Bth-D-pThr-Pip-L-2Nal as substrate incubated for 30 mins by fluorescence polarization analysis
[4] = tested on: MDA-MB-468; assay: Antiproliferative activity against human MDA-MB-468 cells assessed as cell growth inhibition incubated for 96 hrs by Cell-Titer Glo assay; settings: MDA-MB-468, 96 h
[5] = tested on: PANC-1; assay: Antiproliferative activity against human PANC-1 cells assessed as cell growth inhibition incubated for 96 hrs by Cell-Titer Glo assay; settings: PANC-1, 96 h
[6] = tested on: Huh-7; assay: Antiproliferative activity against human Huh-7 cells assessed as cell growth inhibition incubated for 96 hrs by Cell-Titer Glo assay; settings: Huh-7, 96 h
[7] = target: T1, Peptidyl-prolyl cis-trans isomerase NIMA-interacting 1; assay: Binding affinity to GST-tagged PIN1 (unknown origin) assessed as dissociation constant by SPR analysis
[8] = Permeability across apical to basolateral side in MDCK cells incubated for 120 mins by LC-MS/MS analysis; settings: dog
[9] = target: Protein cereblon/Peptidyl-prolyl cis-trans isomerase NIMA-interacting 1 (Homo sapiens, UniProt Q13526+Q96SW2); assay: PROTAC activity at CRBN/PIN1 in human MDA-MB-468 cells assessed as induction of PIN1 degradation incubated for 24 hrs by high content analysis
[10] = Efflux ratio of permeability across basolateral to apical side over apical to basolateral side in MDCK cells incubated for 120 mins by LC-MS/MS analysis; settings: dog

Chain of Protein cereblon/Peptidyl-prolyl cis-trans isomerase NIMA-interacting 1 (Q13526 whole entry): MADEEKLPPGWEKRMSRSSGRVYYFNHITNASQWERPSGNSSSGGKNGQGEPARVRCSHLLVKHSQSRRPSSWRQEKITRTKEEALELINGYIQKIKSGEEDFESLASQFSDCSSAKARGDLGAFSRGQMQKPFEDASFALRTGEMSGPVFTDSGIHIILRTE
Chain of Protein cereblon/Peptidyl-prolyl cis-trans isomerase NIMA-interacting 1 (Q96SW2 whole entry): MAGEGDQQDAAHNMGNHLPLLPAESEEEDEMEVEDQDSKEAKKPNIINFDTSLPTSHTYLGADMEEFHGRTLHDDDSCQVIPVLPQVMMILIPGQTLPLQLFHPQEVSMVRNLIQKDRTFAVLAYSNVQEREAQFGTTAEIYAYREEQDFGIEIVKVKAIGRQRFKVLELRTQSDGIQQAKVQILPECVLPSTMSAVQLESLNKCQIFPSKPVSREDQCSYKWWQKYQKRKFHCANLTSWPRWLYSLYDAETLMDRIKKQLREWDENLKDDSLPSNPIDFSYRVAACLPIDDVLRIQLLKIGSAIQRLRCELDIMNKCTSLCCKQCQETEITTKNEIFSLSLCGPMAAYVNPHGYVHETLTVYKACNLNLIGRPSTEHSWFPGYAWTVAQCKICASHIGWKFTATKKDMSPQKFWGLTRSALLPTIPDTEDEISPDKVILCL
T1 sequence (Q13526 whole entry): as the sequence (Q13526 whole entry) above

Compound	IC50 [3] [µM]	GI50 [4] [µM]	GI50 [5] [µM]	GI50 [6] [µM]	other results
CC(C)(C)c1ccc(S(=O)(=O)/N=C2\C=C(SCC(=O)O)C(=O)c3ccccc32)cc1					IC50 [1]: 640 nM
CC(C)(C)CN(C(=O)CCl)C1CCS(=O)(=O)C1 (stereo unspecified)					Ki [2]: 17 nM
CNC(=O)C(Cc1cn(-c2ccc(-c3ccc(C#N)cc3)cc2)nn1)NC(=O)C1(c2ccccc2)CCCC1 (stereo unspecified)	> 100				
CNC(=O)C(Cc1cn(-c2ccc(-c3ccc(C#N)cc3)cc2)nn1)NC(=O)C1(c2ncccc2C)CC1 (stereo unspecified)	0.36	4.6	> 30	> 30	Kd [7]: 370 nM
Cc1ccccc1C1(C(=O)NC(Cc2cn(-c3ccc(-c4ccc(C#N)cc4)cc3)nn2)C(=O)NC2CCN(C)CC2)CC1 (stereo unspecified)		36.8	9.3	9.9	Papp A→B at 2 h [8]: 0.01 ×10⁻⁶ cm/s
Cc1cccnc1C1(C(=O)NC(Cc2cn(-c3ccc(-c4ccc(C#N)cc4)cc3)nn2)C(=O)NCCCOc2cccc3c2C(=O)N(C2CCC(=O)NC2=O)C3=O)CC1 (stereo unspecified)		2.7	> 30	5.8	DC50 [9]: 20 nM
CNC(=O)C(Cc1cn(-c2ccn(C)n2)nn1)NC(=O)C1(c2ccccc2)CC1 (stereo unspecified)	> 10				Kd [7]: 39300 nM
CNC(=O)C(Cc1cn(-c2ccc(-c3ccc(C#N)cc3)cc2)nn1)NC(=O)C1(c2ccccc2)CCC1 (stereo unspecified)	> 100				
Cc1cccnc1C1(C(=O)NC(Cc2cn(-c3ccc(-c4ccc(C#N)cc4)cc3)nn2)C(=O)NCCCCOc2cccc3c2C(=O)N(C2CCC(=O)NC2=O)C3=O)CC1 (stereo unspecified)		16.5	> 30	20.7	DC50 [9]: 71 nM
CNC(=O)C(Cc1cn(Cc2cc3ccccc3s2)nn1)NC(=O)C1(c2ccccc2)CC1 (stereo unspecified)	> 100				Kd [7]: > 50000 nM
CNC(=O)C(Cc1cn(-c2ccc(-c3ccc(C#N)cc3)cc2)nn1)NC(=O)C1(c2ccccc2)CCCCC1 (stereo unspecified)	> 100				
CNC(=O)C(Cc1cn(-c2ccc(-c3ccc(C#N)cc3)cc2)nn1)NC(=O)Cc1ccccc1 (stereo unspecified)	> 100				
CNC(=O)C(Cc1cn(-c2ccc(C3CCN(C)CC3)cc2)nn1)NC(=O)C1(c2ccccc2)CC1 (stereo unspecified)	> 100				
CNC(=O)/C(=C\c1cn(-c2ccc(-c3ccc(C#N)cc3)cc2)nn1)NC(=O)C1(c2ccccc2C)CC1	0.25	13.8	23.1	15.4	Papp A→B at 2 h [8]: 0.78 ×10⁻⁶ cm/s; Kd [7]: 120 nM; efflux ratio at 2 h [10]: 4.77
Cc1cccnc1C1(C(=O)NC(Cc2cn(-c3ccc(-c4ccc(C#N)cc4)cc3)nn2)C(=O)NC2CCN(CCCOc3cccc4c3C(=O)N(C3CCC(=O)NC3=O)C4=O)CC2)CC1 (stereo unspecified)		> 30	> 30	> 30	DC50 [9]: 41 nM
CNC(=O)C(Cc1cn(-c2ccc(-c3ccc(C#N)cc3)cc2)nn1)NC(=O)C(C)(C)c1ccccc1 (stereo unspecified)	2.09				Kd [7]: 2930 nM
CC(C)(C)NC(=O)C(Cc1cn(-c2ccc(-c3ccc(C#N)cc3)cc2)nn1)NC(=O)C1(c2ccccc2)CC1 (stereo unspecified)	> 100				
Cc1cccnc1C1(C(=O)NC(Cc2cn(-c3ccc(-c4ccc(C#N)cc4)cc3)nn2)C(=O)NC2CCN(CCCCCOc3cccc4c3C(=O)N(C3CCC(=O)NC3=O)C4=O)CC2)CC1 (stereo unspecified)		> 30	> 30	> 30	DC50 [9]: 19 nM
